Test results reported in patent US12344610B2, “APOL1 inhibitors and methods of use” (Maze Therapeutics, Inc., priority 2022, dated 2025).

Legend:
[1] = tested on: HEK293 clonal cell line overexpressing APOL1 G1; test: APOL1 G1 HEK293 cell rescue assay (Example B3); assay type: cell-based; details: Homo sapiens, HEK293, HEK293 clonal line overexpressing APOL1 G1; geometric mean of at least 2 runs; † = single run; ¥ = concentration at 50% rescue estimated (no sigmoidal curve)
Method in brief: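 Rescue of cell death caused by APOL1 G1 overexpression was measured in a clonal HEK293 line. Compounds were tested in duplicate on one plate, and EC50s were geometric means across at least two runs on different days. Some values are estimated 50%-rescue concentrations where curve fitting failed.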

[2] = tested on: human immortalized podocytes inducibly expressing APOL1 G2; test: APOL1 G2 podocyte cell rescue assay (Example B4); assay type: cell-based; details: Homo sapiens, differentiated human podocytes, doxycycline-induced APOL1 G2, CellTiter-Glo; geometric mean of at least 2 runs; † = single run
Description: APOL1 G2 human immortalized podocyte viability assay for measurement of cytotoxicity reversal by compound (APOL1 G2 podocyte cell rescue assay).
Cell Handling. The hTERT-immortalized kidney podocyte cell line was procured from the laboratory of Dr. Moin Saleem at the University of Bristol, UK (Nephrology 17 (2012) 525-531; doi:10.1111/j.1440-1797.2012.01619.x; herein incorporated by reference in its entirety). Parental and engineered cell lines were cultured in RPMI 1640 media (Gibco, 11875093) with 10% Tet System Approved FBS (Takara, 631101). The engineered cell line was maintained under selection (2.5 μg/mL puromycin). Cell lines were maintained and engineered at 33° C. Cell cultures were transferred to 37° C. for 10 to 14 days to initiate differentiation (Nephrology 17 (2012) 525-531; doi:10.1111/j.1440-1797.2012.01619.x; herein incorporated by reference in its entirety). During this time, media was refreshed every 3 days. After differentiation, cells engineered to inducibly express APOL1 G2 were used in the podocyte cell rescue assay.
Cell Line Engineering. The APOL1 G2 coding sequence was cloned into the pLVX-TetOne-Puro vector and verified by sequencing (Genscript Biotech). This construct was designed to have a C-terminal HiBiT tag. Lentiviral packaging of the vector was conducted using the Lenti-X Packaging Single Shots (VSVG) system according to manufacturer instructions (Takara Bio, 631275). A stable cell line was generated by transfecting the parental podocyte cell line with the concentrated virus in media with 5 μg/mL polybrene (Sigma, TR-1003-G). Media was changed the following day. 72 hours post transfection, 2.5 μg/mL puromycin (Gibco, A1113803) was added to the cells and cells were maintained in selection media thereafter. This APOL1 G2 stable cellular pool was subjected to a stringent limiting dilution to generate a pure stable clone (Podocyte/pLVX-TetOne APOL1 G2/clone D10) capable of inducible expression of APOL1 G2.
Assay Setup. T175 flasks containing differentiated podocytes engineered to inducibly express APOL1 G2 (Podocyte/pLVX-TetOne APOL1 G2/clone D10) were washed once with 15 mL of DPBS (Thermo Fisher, 14190-144). These flasks were each trypsinized with 3 mL of prewarmed TrypLE Express (Gibco, 12605-010) and incubated at 37° C. with 5% CO2 until cells detached and neutralized with 7 mL of prewarmed assay media (RPMI 1640 media with 10% Tet System Approved FBS, no selection agent). Cells were pooled and the resulting suspension was gently mixed. The cell suspension was counted using a Countess Cell Counting Chamber (Invitrogen) and the cell concentration was adjusted to 240,000 cells/mL using assay media. Next, 25 μL of a 480 ng/mL working stock of doxycycline diluted in assay media was added to an assay ready plate. All experiments were performed in 384-well, white, solid bottom, tissue culture treated plates (Greiner, 781080). The assay ready compound plates were generated with duplicate 8-point compound dilution series that consisted of 3-fold stepwise dilutions (0.4% DMSO final). The plates were centrifuged at 1000 rpm for 1 minute. 25 μL of diluted cell suspension (final cell density=6,000 cells/well) was added to each well. The plates were centrifuged again at 1000 rpm for 1 minute and then incubated in a humidified incubator (37° C. with 5% CO2). After 95 hours, the assay plates were removed from the incubator and allowed to equilibrate to room temperature for 1 hour. CellTiter-Glo® reagent (Promega, G7570) was prepared according to the manufacturer's instructions. 25 μL of CellTiter-Glo® reagent was added to each well. Assay plates were sealed with foil and mixed for 5 minutes on an orbital shaker (500 rpm) to induce cell lysis. Plates were centrifuged at 1000 rpm for 1 minute. 10 minutes after CellTiter-Glo® reagent addition, an Envision plate reader (Perkin Elmer) was used to measure the luminescent signal of each assay plate. Collaborative Drug Discovery software was utilized for graphing data. […]

CN(c1c(F)cc(OCCN2CCC3(CC2)C(=O)Nc2ccc(Cl)cc23)cc1F)S(C)(=O)=O [Compound 127, N-[4-(2-{5-chloro-2-oxo-1,2-dihydrospiro[indole-3,4′-piperidin]-1′-yl}ethoxy)-2,6-difluorophenyl]-N-methylmethanesulfonamide]
EC50 [1]: 61 nM
EC50 [2]: 5.39 nM

Cc1cc(OCCN2CCC3(CC2)C(=O)Nc2ccc(Cl)cc23)cnc1S(C)(=O)=O [Compound 161, 5-chloro-1′-{2-[(6-methanesulfonyl-5-methylpyridin-3-yl)oxy]ethyl}-1,2-dihydrospiro[indole-3,4′-piperidin]-2-one]
EC50 [1]: 135 nM

O=C1CCc2cc(OCCN3CCC4(CC3)C(=O)Nc3ccc(Cl)cc34)ccc2N1CCO [Compound 162, 5-chloro-1′-(2-{[1-(2-hydroxyethyl)-2-oxo-1,2,3,4-tetrahydroquinolin-6-yl]oxy}ethyl)-1,2-dihydrospiro[indole-3,4′-piperidin]-2-one]
EC50 [1]: 174 nM

CS(=O)(=O)c1ccc(OCCN2CCC3(CC2)C(=O)Nc2ccc(Cl)cc23)cc1OC(F)F [Compound 163, 5-chloro-1′-{2-[3-(difluoromethoxy)-4-methanesulfonylphenoxy]ethyl}-1,2-dihydrospiro[indole-3,4′-piperidin]-2-one]
EC50 [1]: 113 nM

CS(=O)(=O)c1ccc(OCCN2CCC3(CC2)C(=O)Nc2ccc(C#N)cc23)cc1OC(F)F [Compound 164, 1′-{2-[3-(difluoromethoxy)-4-methanesulfonylphenoxy]ethyl}-2-oxo-1,2-dihydrospiro[indole-3,4′-piperidine]-5-carbonitrile]
EC50 [1]: 316 nM

CS(=O)(=O)C1(c2ccc(OCCN3CCC4(CC3)C(=O)Nc3ccc(Cl)cc34)cc2C(F)(F)F)COC1 [Compound 165, 5-chloro-1′-{2-[4-(3-methanesulfonyloxetan-3-yl)-3-(trifluoromethyl)phenoxy]ethyl}-1,2-dihydrospiro[indole-3,4′-piperidin]-2-one]
EC50 [1]: 59 nM

CS(=O)(=O)C1(c2ccc(OCCN3CCC4(CC3)C(=O)Nc3ccc(C#N)cc34)cc2C(F)(F)F)COC1 [Compound 166, 1′-{2-[4-(3-methanesulfonyloxetan-3-yl)-3-(trifluoromethyl)phenoxy]ethyl}-2-oxo-1,2-dihydrospiro[indole-3,4′-piperidine]-5-carbonitrile]
EC50 [1]: 163 nM

O=C1Nc2ccc(Cl)cc2C12CCN(CCOc1ccc3c(c1)CCNS3(=O)=O)CC2 [Compound 167, 6-(2-{5-chloro-2-oxo-1,2-dihydrospiro[indole-3,4′-piperidin]-1′-yl}ethoxy)-3,4-dihydro-2H-1λ^6,2-benzothiazine-1,1-dione]
EC50 [1]: 138 nM

N#Cc1ccc2c(c1)C1(CCN(CCOc3ccc4c(c3)CCNS4(=O)=O)CC1)C(=O)N2 [Compound 168, 1′-{2-[(1,1-dioxo-3,4-dihydro-2H-1λ^6,2-benzothiazin-6-yl)oxy]ethyl}-2-oxo-1,2-dihydrospiro[indole-3,4′-piperidine]-5-carbonitrile]
EC50 [1]: > 7840 nM

CN1C(=O)Cc2cc(OCCN3CCC4(CC3)C(=O)Nc3ccc(C#N)cc34)cc(F)c21 [Compound 169, 1′-{2-[(7-fluoro-1-methyl-2-oxo-2,3-dihydro-1H-indol-5-yl)oxy]ethyl}-2-oxo-1,2-dihydrospiro[indole-3,4′-piperidine]-5-carbonitrile]
EC50 [1]: 1030 nM

CC1(Oc2ncc(OCCN3CCC4(CC3)C(=O)Nc3ccc(Cl)cc34)cn2)COC1 [Compound 172, 5-chloro-1′-[2-({2-[(3-methyloxetan-3-yl)oxy]pyrimidin-5-yl}oxy)ethyl]-1,2-dihydrospiro[indole-3,4′-piperidin]-2-one]
EC50 [1]: 188 nM

CCS(=O)(=O)C1(c2ccc(OCCN3CCC4(CC3)C(=O)Nc3ccc(C#N)cc34)cc2)COC1 [Compound 174, 1′-(2-{4-[3-(ethanesulfonyl)oxetan-3-yl]phenoxy}ethyl)-2-oxo-1,2-dihydrospiro[indole-3,4′-piperidine]-5-carbonitrile]
EC50 [1]: 253 nM

CS(=O)(=O)C1(c2ccc(OCCN3CCC4(CC3)C(=O)Nc3ccc(Cl)cc34)cc2)CCC1 [Compound 180, 5-chloro-1′-{2-[4-(1-methanesulfonylcyclobutyl)phenoxy]ethyl}-1,2-dihydrospiro[indole-3,4′-piperidin]-2-one]
EC50 [1]: 74.9 nM

CS(=O)(=O)C1(c2ccc(OCCN3CCC4(CC3)C(=O)Nc3ccc(C#N)cc34)cc2)CCC1 [Compound 181, 1′-{2-[4-(1-methanesulfonylcyclobutyl)phenoxy]ethyl}-2-oxo-1,2-dihydrospiro[indole-3,4′-piperidine]-5-carbonitrile]
EC50 [1]: 194 nM

CS(=O)(=O)C1(c2ccc(OCCN3CCC4(CC3)C(=O)Nc3ccc(Cl)cc34)cc2)CC2(COC2)C1 [Compound 182, 5-chloro-1′-[2-(4-{6-methanesulfonyl-2-oxaspiro[3.3]heptan-6-yl}phenoxy)ethyl]-1,2-dihydrospiro[indole-3,4′-piperidin]-2-one]
EC50 [1]: 225 nM

CS(=O)(=O)C1(c2ccc(OCCN3CCC4(CC3)C(=O)N(CC(F)(F)F)c3ccc(C#N)cc34)cc2)COC1 [Compound 184, 1′-{2-[4-(3-methanesulfonyloxetan-3-yl)phenoxy]ethyl}-2-oxo-1-(2,2,2-trifluoroethyl)-1,2-dihydrospiro[indole-3,4′-piperidine]-5-carbonitrile]
EC50 [1]: ~2500 nM

CS(=O)(=O)C1(c2ccc(OCCN3CCC4(CC3)C(=O)N(CC(F)(F)F)c3ccc(Cl)cc34)cc2)COC1 [Compound 185, 5-chloro-1′-{2-[4-(3-methanesulfonyloxetan-3-yl)phenoxy]ethyl}-1-(2,2,2-trifluoroethyl)-1,2-dihydrospiro[indole-3,4′-piperidin]-2-one]
EC50 [1]: 231 nM

CS(=O)(=O)C1(c2ccc(OCCN3CCC4(CC3)C(=O)Nc3ccc(Cl)cc34)cc2)CCOCC1 [Compound 188, 5-chloro-1′-{2-[4-(4-methanesulfonyloxan-4-yl)phenoxy]ethyl}-1,2-dihydrospiro[indole-3,4′-piperidin]-2-one]
EC50 [1]: 122 nM

CN1C(=O)C2(CCN(CCOc3cc(F)c(C4(S(C)(=O)=O)COC4)c(F)c3)CC2)c2cc(C#N)ccc21 [Compound 189, 1′-{2-[3,5-difluoro-4-(3-methanesulfonyloxetan-3-yl)phenoxy]ethyl}-1-methyl-2-oxo-1,2-dihydrospiro[indole-3,4′-piperidine]-5-carbonitrile]
EC50 [1]: 148 nM

CC(C)(c1ccc(OCCN2CCC3(CC2)C(=O)Nc2ccc(C#N)cc23)cn1)S(C)(=O)=O [Compound 191, 1′-(2-{[6-(2-methanesulfonylpropan-2-yl)pyridin-3-yl]oxy}ethyl)-2-oxo-1,2-dihydrospiro[indole-3,4′-piperidine]-5-carbonitrile]
EC50 [1]: 283 nM
